The subject of the assay is adjuvant arthritis. Description: adjuvant arthritis test. Format: in vivo, Wistar rats. The conditions noted are these: for Clinical scores (± S.E.): 50 μg/rat peptide in PBS intradermally at day 4, 5 and 6 after M. tuberculosis, score 0 to 18; for Incidence of arthritis (arthritic rats/total rats): 50 μg/rat at day 4, 5 and 6. Here is the method: The peptide of the present invention is useful in the treatment of inflammatory pathologies of different kinds and origins, as it is shown by pharmacological test (adjuvant arthritis test) as follows.
15 Wistar rats (C. River; weight 130-140 g) and anaesthetized with CO2, were intradermically administered (injection at the base of the tie) with 0.1 ml of a suspension of 10 mg/ml of heat-inactivated M. tuberculosis (Strain C, DT and PN; Central Vet. Labs--GB), in sterile paraffin oil. The rats were divided in 3 groups of 5 animals each, and at day 4, 5 and 6 from the above treatment, following the same method for inducing arthritis, they were administered with 50 μg/rat dose of the peptide I in 100 μl of PBS for the first group, with PBS only for the second group, while the third group was not treated. The course of the arthritis was monitored according to the following scheme of clinical scores:
The scores range from 0 to 4 for each paw; furthermore one additional score is assigned if there are nodules on the tie, and another futher score is assigned if ears are involved, thereby the score is 0 at minimum and 18 at maximum.

The results in this text go back to patent publication US5856305A, “Peptides endowed with antiinflammatory activity” (Italfarmaco S.P.A., priority 1994, dated 1999).

H-AKVNIKPLEDKILVQANEAETTTAS-OH [1-25]: the “Clinical scores (± S.E.)” value by setting is: (day 7) 0; (day 8) 0; (day 10) 0.6 ± 0.6; (day 11) 3.8 ± 0.4; (day 12) 10.0 ± 0.7; (day 13) 12.6 ± 0.6. Further, the “Incidence of arthritis (arthritic rats/total rats)” value runs as follows: (day 10) 1/5; (day 11) 5/5; (day 12) 5/5.
